{"source": "ChEMBL document CHEMBL2010746", "about": "“Synthesis, resolution and anticonvulsant activity of chiral N-1'-ethyl,N-3'-(1-phenylethyl)-(R,S)-2'H,3H,5'H-spiro-(2-benzofuran-1,4'-imidazolidine)-2',3,5'-trione diastereomers” (2012)", "key": {"Mus musculus [1]": {"tested_on": "Mus musculus", "experiment": "Anticonvulsant activity in mouse assessed as decrease in pentylenetetrazol-induced convulsions at 300 mg/kg, ip at 30 mins", "format": "functional, organism-based", "set-up": "dose 300 mg/kg"}, "Mus musculus [2]": {"tested_on": "Mus musculus", "experiment": "Anticonvulsant activity in mouse assessed as decrease in pentylenetetrazol-induced convulsions up to 300 mg/kg, ip at 30 mins", "format": "functional, organism-based", "set-up": "dose 300 mg/kg"}, "Mus musculus [3]": {"tested_on": "Mus musculus", "experiment": "Anticonvulsant activity in ip dosed mouse assessed as decrease in pentylenetetrazol-induced convulsions at 30 mins", "format": "functional", "settings": "0.5 h"}}, "note": "Activity calls are given as the source filed them. The calls are words filed in the database; no cut-off is given here."}
{"smiles": "CCN1C(=O)N([C@H](C)c2ccccc2)[C@]2(OC(=O)c3ccccc32)C1=O", "values": [{"measurement": "Activity", "setting": "Mus musculus [1]", "result": "Active"}]}
{"smiles": "CCN1C(=O)N([C@@H](C)c2ccccc2)[C@]2(OC(=O)c3ccccc32)C1=O", "values": [{"measurement": "Activity", "setting": "Mus musculus [2]", "result": "inactive"}]}
{"smiles": "CCN1C(=O)N([C@@H](C)c2ccccc2)[C@@]2(OC(=O)c3ccccc32)C1=O", "values": [{"measurement": "ED50", "setting": "Mus musculus [3]", "result": 300, "unit": "mg/kg"}]}
{"smiles": "CCC1(c2ccccc2)C(=O)NC(=O)NC1=O", "note": "[PHENOBARBITAL]", "values": [{"measurement": "ED50", "setting": "Mus musculus [3]", "result": 25, "unit": "mg/kg"}]}
{"smiles": "CCN1C(=O)N([C@H](C)c2ccccc2)[C@@]2(OC(=O)c3ccccc32)C1=O", "values": [{"measurement": "Activity", "setting": "Mus musculus [2]", "result": "inactive"}]}
